Reference: patent publication US9018173B2, “Materials and methods for suppressing inflammatory and neuropathic pain” (Indiana University Research and Technology Corp., priority 2010, dated 2015)
Residues, ends and D or L forms follow the SMILES beside them.

Key:
[1] = Biodistribution after i.p. injection (dot blot, FITC fluorescence); conditions: 25 mg/kg i.p.
[2] = system: tail kinking and body contortion; test: Observation of side-effects after i.p. injection in mice; type: in vivo
From the text: Referring now to FIG. 24. Biodistribution and side-effects of TAT-CBD3. […] Oxygenated blood was collected from a cardiac puncture. […] The 95% confidence limits are also indicated.
The possible effects of TAT-CBD3 on motor coordination, locomotor function, sedation (rotarod test) and hippocampal-dependent memory (Morris water-maze test) was investigated.

[3] = molecular target: CaV2.2 current density in hippocampal neurons (Rattus norvegicus, UniProt Q02294); test: Whole-cell patch-clamp Ca2+ currents in hippocampal neurons; type: cell-based; conditions: co-expression with CRMP-2 in hippocampal neurons; +10 mV
Sequence of CaV2.2 current density in hippocampal neurons (Q02294 whole entry): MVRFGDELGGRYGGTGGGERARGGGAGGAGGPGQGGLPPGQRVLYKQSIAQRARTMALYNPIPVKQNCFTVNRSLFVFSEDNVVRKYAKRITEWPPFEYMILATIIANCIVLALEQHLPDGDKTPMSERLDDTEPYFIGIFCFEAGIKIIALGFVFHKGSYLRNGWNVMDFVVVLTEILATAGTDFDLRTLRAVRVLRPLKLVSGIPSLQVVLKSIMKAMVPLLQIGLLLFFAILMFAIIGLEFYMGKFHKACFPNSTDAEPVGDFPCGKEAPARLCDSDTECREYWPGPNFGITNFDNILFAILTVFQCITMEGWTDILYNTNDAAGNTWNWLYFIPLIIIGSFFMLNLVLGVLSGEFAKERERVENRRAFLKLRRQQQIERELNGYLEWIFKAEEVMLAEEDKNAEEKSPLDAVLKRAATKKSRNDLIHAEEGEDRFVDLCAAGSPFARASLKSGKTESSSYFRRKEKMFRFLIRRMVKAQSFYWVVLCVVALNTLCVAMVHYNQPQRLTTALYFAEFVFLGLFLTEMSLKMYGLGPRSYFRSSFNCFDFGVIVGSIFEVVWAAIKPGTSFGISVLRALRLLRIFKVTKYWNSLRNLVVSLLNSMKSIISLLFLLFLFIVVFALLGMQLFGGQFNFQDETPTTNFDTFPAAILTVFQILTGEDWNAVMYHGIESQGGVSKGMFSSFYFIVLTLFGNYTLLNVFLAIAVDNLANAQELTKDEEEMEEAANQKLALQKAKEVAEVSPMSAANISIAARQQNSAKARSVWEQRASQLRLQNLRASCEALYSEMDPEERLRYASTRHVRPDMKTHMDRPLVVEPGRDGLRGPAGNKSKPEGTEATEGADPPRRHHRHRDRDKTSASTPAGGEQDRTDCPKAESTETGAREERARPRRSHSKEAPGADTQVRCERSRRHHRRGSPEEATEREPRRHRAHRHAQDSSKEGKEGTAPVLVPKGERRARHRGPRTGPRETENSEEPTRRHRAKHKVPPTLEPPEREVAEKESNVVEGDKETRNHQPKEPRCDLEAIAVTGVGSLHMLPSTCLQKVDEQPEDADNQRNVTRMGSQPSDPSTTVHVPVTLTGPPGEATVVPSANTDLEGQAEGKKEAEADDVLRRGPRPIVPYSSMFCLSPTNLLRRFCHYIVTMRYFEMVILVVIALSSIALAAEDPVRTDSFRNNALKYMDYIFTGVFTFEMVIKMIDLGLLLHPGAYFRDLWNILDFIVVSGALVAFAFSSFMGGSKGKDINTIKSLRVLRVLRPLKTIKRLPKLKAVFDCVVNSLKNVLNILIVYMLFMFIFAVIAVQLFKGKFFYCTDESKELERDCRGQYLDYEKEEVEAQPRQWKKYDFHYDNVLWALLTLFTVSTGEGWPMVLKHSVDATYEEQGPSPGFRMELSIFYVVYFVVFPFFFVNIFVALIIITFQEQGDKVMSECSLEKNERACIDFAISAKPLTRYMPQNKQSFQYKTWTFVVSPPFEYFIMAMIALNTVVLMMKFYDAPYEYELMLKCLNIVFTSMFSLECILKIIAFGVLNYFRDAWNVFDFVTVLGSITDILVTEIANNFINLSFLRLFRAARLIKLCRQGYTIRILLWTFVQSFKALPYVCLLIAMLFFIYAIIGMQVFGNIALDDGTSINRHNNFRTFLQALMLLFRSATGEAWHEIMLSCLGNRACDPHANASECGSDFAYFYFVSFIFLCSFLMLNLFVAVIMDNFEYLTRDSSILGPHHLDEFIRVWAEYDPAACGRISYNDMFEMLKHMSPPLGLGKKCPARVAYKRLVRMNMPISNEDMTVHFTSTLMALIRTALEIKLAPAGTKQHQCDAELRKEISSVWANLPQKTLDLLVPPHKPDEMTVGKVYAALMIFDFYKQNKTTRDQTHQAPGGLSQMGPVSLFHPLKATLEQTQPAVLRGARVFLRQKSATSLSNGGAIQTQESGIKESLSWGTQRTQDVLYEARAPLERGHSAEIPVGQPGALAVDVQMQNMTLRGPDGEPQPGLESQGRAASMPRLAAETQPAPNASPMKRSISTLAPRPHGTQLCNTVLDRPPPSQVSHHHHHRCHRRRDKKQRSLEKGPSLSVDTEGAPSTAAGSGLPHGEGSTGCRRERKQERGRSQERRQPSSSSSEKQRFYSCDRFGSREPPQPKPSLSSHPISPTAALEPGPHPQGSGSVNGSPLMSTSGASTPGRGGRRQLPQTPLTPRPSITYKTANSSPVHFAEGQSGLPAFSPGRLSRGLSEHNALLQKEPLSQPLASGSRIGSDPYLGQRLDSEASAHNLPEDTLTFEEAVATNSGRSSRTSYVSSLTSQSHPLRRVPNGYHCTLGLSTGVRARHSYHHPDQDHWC
Sequence of CaV2.2 current density in hippocampal neurons (P54287 whole entry partner): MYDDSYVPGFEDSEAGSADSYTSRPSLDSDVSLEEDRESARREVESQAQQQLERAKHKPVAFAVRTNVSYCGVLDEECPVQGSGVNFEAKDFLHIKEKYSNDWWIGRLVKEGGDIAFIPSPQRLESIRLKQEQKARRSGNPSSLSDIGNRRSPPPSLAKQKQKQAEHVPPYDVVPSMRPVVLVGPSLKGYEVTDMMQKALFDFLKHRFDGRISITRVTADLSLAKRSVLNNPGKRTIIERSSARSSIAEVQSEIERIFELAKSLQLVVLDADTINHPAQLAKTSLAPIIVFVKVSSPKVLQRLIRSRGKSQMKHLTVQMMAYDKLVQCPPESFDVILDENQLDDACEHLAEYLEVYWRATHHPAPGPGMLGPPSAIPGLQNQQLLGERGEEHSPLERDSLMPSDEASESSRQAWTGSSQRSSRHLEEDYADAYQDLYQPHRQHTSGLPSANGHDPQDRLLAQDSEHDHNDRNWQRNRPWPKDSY
Sequence of CaV2.2 current density in hippocampal neurons (P54290 25-944 partner limits assumed): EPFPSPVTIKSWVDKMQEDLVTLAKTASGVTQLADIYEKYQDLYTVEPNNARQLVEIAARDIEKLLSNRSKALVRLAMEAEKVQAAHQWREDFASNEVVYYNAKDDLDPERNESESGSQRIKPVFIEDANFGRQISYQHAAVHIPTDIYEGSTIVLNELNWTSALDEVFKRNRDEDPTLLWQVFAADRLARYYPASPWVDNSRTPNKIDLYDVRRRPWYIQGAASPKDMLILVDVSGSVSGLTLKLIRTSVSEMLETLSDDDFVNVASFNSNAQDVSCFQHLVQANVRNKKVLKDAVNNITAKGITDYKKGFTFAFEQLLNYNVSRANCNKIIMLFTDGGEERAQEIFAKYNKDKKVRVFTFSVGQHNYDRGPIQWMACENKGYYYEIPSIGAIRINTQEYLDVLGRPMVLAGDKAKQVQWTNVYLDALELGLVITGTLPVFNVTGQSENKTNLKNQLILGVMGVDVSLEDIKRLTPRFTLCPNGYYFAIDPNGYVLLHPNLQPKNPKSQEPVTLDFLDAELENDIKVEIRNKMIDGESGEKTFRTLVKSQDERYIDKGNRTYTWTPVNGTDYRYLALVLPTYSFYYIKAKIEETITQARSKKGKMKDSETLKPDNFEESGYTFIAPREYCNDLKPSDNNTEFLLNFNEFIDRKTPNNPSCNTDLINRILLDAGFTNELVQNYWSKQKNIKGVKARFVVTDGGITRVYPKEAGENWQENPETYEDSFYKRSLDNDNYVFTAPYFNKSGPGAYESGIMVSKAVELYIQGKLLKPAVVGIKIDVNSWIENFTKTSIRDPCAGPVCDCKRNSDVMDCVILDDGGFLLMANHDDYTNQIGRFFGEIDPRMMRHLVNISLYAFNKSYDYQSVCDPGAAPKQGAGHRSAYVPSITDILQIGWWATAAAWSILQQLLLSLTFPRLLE
Sequence of CaV2.2 current density in hippocampal neurons (P54290 945-1091 partner limits assumed): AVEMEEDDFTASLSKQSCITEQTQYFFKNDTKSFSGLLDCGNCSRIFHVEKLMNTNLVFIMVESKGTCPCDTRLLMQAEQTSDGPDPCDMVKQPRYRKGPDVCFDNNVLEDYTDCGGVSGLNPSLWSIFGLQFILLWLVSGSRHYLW

[4] = system: CaV2.2 surface expression in CAD cells; test: CaV2.2 surface expression in CAD cells (immunocytochemistry, surface biotinylation); type: cell-based
Description: Catecholamine A Differentiated (CAD) cells. CAD cells were grown at 37° C. and in 5% CO2 (Sarstedt, Newton, N.C.) in Ham's F12/EMEM medium (GIBCO, Grand Island, N.Y.), supplemented with 8% fetal bovine serum (FBS; Sigma, St. Louis, Mo.) and 1% penicillin/streptomycin ([…], 10,000 U/ml penicillin G sodium and 10,000 μg/ml streptomycin sulfate). Cells were passaged every 6-7 days at a 1:25 dilution.
Transient transfection. Adherent cultures were transfected with cDNAs using Lipofectamine 2000 (Invitrogen) as described previously. About 2-3% transfection efficiencies in hippocampal neurons was achieved routinely, 35-40% in DRG, and 75-80% in CAD cells transfected with this method. Typically, cultured cells were transfected with equal amounts of different cDNA constructs and experiments performed two days later.
Cell Surface Biotinylation. Biotinylation was performed as described. […]
Immunocytochemistry. […] Images were acquired on a Nikon Ti swept-field confocal microscope using a 60×, 1.4 NA lens and standard FITC/Texas red fluorescence cubes with a cooled Cascade 512B digital camera (Photometrics, Tucson, Ariz.). […]

| Molecule | tissue distribution (dot blot, anti-TAT antibody) ([1]; 15 min post-injection) | tissue distribution (dot blot, anti-TAT antibody) ([1]; 1 h post-injection) | side-effects immediately following injection ([2]; 10 and 50 mg/kg) | tail kinking episodes ([2]; n=7 each condition) | dose giving mild motor impairment relative to dose required to reduce hypersensitivity in vivo ([2]; transient tail kinking and body contortion) | body contortion ([2]; up to 50 mg/kg, n=7) | CRMP-2-mediated increase in CaV2.2 current density [3] | CaV2.2 localisation on co-expression ([4]; co-expression of CaV2.2 with CBD3 in CAD cells) | surface expression of co-expressed CaV2.2 (surface biotinylation) ([4]; expressed in CAD cells) |
| --- | --- | --- | --- | --- | --- | --- | --- | --- | --- |
| CC(C)C[C@H](NC(=O)CNC(=O)[C@H](CCCNC(=N)N)NC(=O)[C@@H]1CCCN1C(=O)[C@@H](NC(=O)CNC(=O)[C@H](CCCNC(=N)N)NC(=O)[C@H](CC(C)C)NC(=O)[C@H](CCC(=O)O)NC(=O)[C@H](C)NC(=O)[C@H](CC(C)C)NC(=O)[C@H](CCCNC(=N)N)NC(=O)[C@H](CO)NC(=O)[C@H](CCCNC(=N)N)NC(=O)[C@H](C)NC(=O)[C@H](CCCNC(=N)N)NC(=O)[C@H](CCCNC(=N)N)NC(=O)[C@H](CCCNC(=N)N)NC(=O)[C@H](CCC(N)=O)NC(=O)[C@H](CCCNC(=N)N)NC(=O)[C@H](CCCNC(=N)N)NC(=O)[C@H](CCCCN)NC(=O)[C@H](CCCCN)NC(=O)[C@H](CCCNC(=N)N)NC(=O)CNC(=O)[C@@H](N)Cc1ccc(O)cc1)C(C)C)C(=O)O [TAT-CBD3] (H-YGRKKRRQRRRARSRLAELRGVPRGL-OH; N-terminus and C-terminus assumed) | detected in spleen and largely concentrated in lumbar dorsal root ganglion (DRG) and lumbar section of the spinal cord | also detected in kidney, brain, spinal cord and was abundant in the DRG | A single episode of kinking at the base of the tail and whole body contortion was observed in mice | only a single episode of tail kinking movement was observed in the mice | more than 50 fold | no body contortion was observed in mice |  |  |  |
| ARSRLAELRGVPRGL (CBD3) |  |  |  |  |  |  | eliminated | almost complete retention of the channel in cytoplasmic aggregates | prevented surface expression |
